The target in data set [1] is T1, RAGE (sRAGE) with β-amyloid as the RAGE ligand (Homo sapiens, UniProt Q15109).
T1 construct: generate soluble RAGE (sRAGE) comprised of the V and C domains
Kind of data set: ELISA: inhibition of sRAGE binding to plate-bound β-amyloid. The settings on record: sRAGE 6 nM, hydrochloride salt form. On the procedure:
(§1) The following assay method may be used to identify compounds of Formula (I) or pharmaceutically acceptable salts thereof which are useful as inhibitors of binding of physiological RAGE ligands, such as S100b and β-amyloid, to RAGE.
(§2) S100b, β-amyloid, or CML (500 ng/100 μL/well) in 100 mM sodium bicarbonate/sodium carbonate buffer (pH 9.8) is loaded onto the wells of a NUNC Maxisorp flat bottom 96-well microtitre plate. The plate is incubated at 4° C. overnight. The wells are aspirated and treated with 50 mM imidazole buffer saline (pH 7.2) (with 5 mM CaCl2/MgCl2) containing 1% bovine serum albumin (BSA) (300 μL/well) for 1 h at RT. The wells are aspirated.
(§3) Test compounds are dissolved in nanopure water (concentration: 10-100 μM). DMSO may be used as co-solvent. 25 μL of test compound solution in 4% DMSO is added, along with 75 μL sRAGE (6 nM FAC) to each well and samples are incubated for 1 h at 37° C. The wells are washed several times with 155 mM NaCl pH 7.2 buffer saline and are soaked for several seconds between each wash.
(§4) Non-radioactive detection is performed by adding:
(§5) 10 μL Biotinylated goat F(ab′)2 Anti-mouse IgG. (8.0×10-4 mg/mL, FAC), 5 μL Alk-phos-Streptavidin (3×10-3 mg/mL FAC), 0.42 μL per 5 mL Monoclonal antibody for sRAGE (FAC 6.0×10-3 mg/mL) to 5 mL 50 mM imidazole buffer saline (pH 7.2) containing 0.2% bovine serum albumin and 5 mM CaCl2. The mixture is incubated for 30 minutes at RT.
(§6) 100 μL of complex is added to each well and incubation is allowed to proceed at rt for 1 h. Wells are washed several times with wash buffer and soaked several seconds between each wash. 100 μL 1 mg/mL (pNPP) in 1 M diethanolamine (pH adjusted to 9.8 with HCl) is added. Color is allowed to develop in the dark for 30 min to 1 h at rt. The reaction is quenched with 10 μL of stop solution (0.5-1.0 N NaOH in 50% ethanol) and the absorbance is measured spectrophotometrically with a microplate reader at 405 nm.
(§7) IC50 (μM) of in the ELISA assay represents the concentration of compound at which 50% signal has been inhibited.
In general terms: ELISA stands for enzyme-linked immunosorbent assay.

For data set [2], the target named is T2, RAGE (sRAGE) with S100b as the RAGE ligand (Homo sapiens, UniProt Q15109).
T2 construct: generate soluble RAGE (sRAGE) comprised of the V and C domains
T2 sequence (Q15109 23-342 limits assumed): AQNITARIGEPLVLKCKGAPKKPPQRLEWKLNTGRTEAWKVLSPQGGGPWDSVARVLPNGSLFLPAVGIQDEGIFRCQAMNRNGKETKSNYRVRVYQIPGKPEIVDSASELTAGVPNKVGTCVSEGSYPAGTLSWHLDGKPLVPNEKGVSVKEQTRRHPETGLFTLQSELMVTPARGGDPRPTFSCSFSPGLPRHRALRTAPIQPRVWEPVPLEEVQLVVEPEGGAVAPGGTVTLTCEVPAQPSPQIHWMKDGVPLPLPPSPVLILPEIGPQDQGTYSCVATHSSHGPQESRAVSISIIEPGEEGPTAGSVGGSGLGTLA
Kind of data set: ELISA: inhibition of sRAGE binding to plate-bound S100b. The settings on record: sRAGE 6 nM, hydrochloride salt form. On the procedure: as §1, §2, §3, §4, §5, §6, §7

Data set [3] is described as follows: Pharmacokinetic screening in rats, brain and plasma concentrations at 6 hour time point. Format: in vivo. Conditions: male, Sprague Dawley, rat, 5 mg/kg oral (PO), 6 hour time point; for concentration at 6 h: 2% Tween 80 in distilled water. Here is the method:
Pharmacokinetic screening in rats was performed on various compounds to measure brain and plasma concentrations at 6 hour time point.
The parameters for the pharmacokinetic protocol were as follows.
Amount of compound: 5 mg/kg
Species: Rat; Strain: Sprague Dawley; Sex: Male
Average body weight at dose: weight ranged from 271 to 423 grams
Average age at dose: age ranged from 9 to 14 weeks
Diet Status Overnight fasting
Number of Animals (n) for each time point: 2
Formulation: 2% Tween 80 in distilled water
Each formulation was administered once by oral gavage. The dose volume was 5 mL/kg for all animals. The actual volume administered to each animal was calculated and adjusted based on the most recent body weight.
Blood samples (approximately 300 μL whole blood) at (1, 2, and 4 h) was collected from each animal via tail vein except for terminal blood samples. Terminal blood (6 h) samples were collected via cardiac puncture. All samples were collected into tubes containing lithium heparin (Multivette 600 LH-Gel, Sarstedt, Newton, N.C., USA). Following collection, the tubes were placed in refrigerator (maximum 30 minutes) or until centrifugation under refrigeration (at 2 to 8° C.) at 1500 g for approximately 15 minutes. Each harvested plasma sample was then transferred into 1.2 mL polypropylene tubes, on the 96-Well Plate according to the 96-Well Plate plasma sample map and kept in freezer. Plasma samples were then analyzed for test substances.
Brain samples were collected immediately after the animals were euthanized at designated time points. Brain samples were rinsed with saline, blotted dry, and weighed. Brain samples were placed into individual containers and kept in freezer (−20° C.). Brain samples were then analyzed for test articles.
After analysis, all the plasma results are reported as ng/mL and brain sample results are reported as ng/g. In the table below, “ND” stands for not determined and “NA” stands for not applicable.

pIC50: −log10 of the molar value. Structures can show the parent of a compound that is named as a salt. Where two headings read alike, the source gives them in different places.

T1 sequence (Q15109 23-342 limits assumed): as above

For the compound `CCCCc1nc(-c2ccc(OC[C@@H](O)CN(CC)CC)cc2)cn1-c1ccc(Oc2ccc(Cl)cc2)cc1` [Example 4, (S)-1-(4-{2-butyl-1-[4-(4-chloro-phenoxy)-phenyl]-1H-imidazol-4-yl}-phenoxy)-3-diethylamino-propan-2-ol dihydrochloride], the pIC50 (in general, the IC50 on a negative log10 scale, so that one unit is a factor of ten) in data set [1] was 6.19; in data set [2], 6.27. Also, the concentration at 6 h in data set [3] (brain, read-out: Brain concentration) is 610 ng/g; in data set [3] (plasma, read-out: Plasma concentration), 74 ng/mL. The Kp at 6 h in data set [3] (brain/plasma ratio, read-out: B/P Ratio) was 8.8.
